Consider four molecules from patent US20130116304A1, “TMEM195 ENCODES FOR TETRAHYDROBIOPTERIN-DEPENDENT ALKYLGLYCEROL MONOOXYGENASE ACTIVITY” (priority 2010, published 2013).

In data set [1] the target is T1, alkylglycerol monooxygenase (TMEM195) (Homo sapiens, UniProt Q6ZNB7).
T1 construct: host or cells: CHO-K1 cells, transiently transfected with ExGen 500; pellets opened in water with 0.5% CHAPS
T1 sequence (Q6ZNB7 1-445): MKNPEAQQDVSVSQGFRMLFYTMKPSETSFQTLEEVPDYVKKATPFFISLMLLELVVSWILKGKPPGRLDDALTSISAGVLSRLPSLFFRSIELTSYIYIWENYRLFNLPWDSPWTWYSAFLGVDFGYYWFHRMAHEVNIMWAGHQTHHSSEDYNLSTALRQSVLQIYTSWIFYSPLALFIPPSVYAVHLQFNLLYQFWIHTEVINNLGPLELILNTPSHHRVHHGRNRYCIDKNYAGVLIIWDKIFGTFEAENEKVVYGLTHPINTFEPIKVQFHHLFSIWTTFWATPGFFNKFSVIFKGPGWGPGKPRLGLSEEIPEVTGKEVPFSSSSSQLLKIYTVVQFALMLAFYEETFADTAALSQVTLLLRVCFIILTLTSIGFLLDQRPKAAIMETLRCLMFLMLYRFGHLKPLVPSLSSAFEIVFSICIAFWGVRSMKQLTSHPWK
In words: Alkylglycerol monooxygenase activity generated in CHO cells by transfection of TMEM195 and ALDH3A2 (pyrenedecanoic acid, HPLC with fluorescence detection). The format is biochemical. As to conditions: mean±SEM.

The target of data set [2] is T2, alkylglycerol monooxygenase (Rattus norvegicus, UniProt A0JPQ8).
T2 construct: those found in rat liver microsomes (KM 8.90 μM for 1-O-pyrenedecylglycerol); from tissue; host or cells: rat liver microsomes
T2 sequence (A0JPQ8 1-447): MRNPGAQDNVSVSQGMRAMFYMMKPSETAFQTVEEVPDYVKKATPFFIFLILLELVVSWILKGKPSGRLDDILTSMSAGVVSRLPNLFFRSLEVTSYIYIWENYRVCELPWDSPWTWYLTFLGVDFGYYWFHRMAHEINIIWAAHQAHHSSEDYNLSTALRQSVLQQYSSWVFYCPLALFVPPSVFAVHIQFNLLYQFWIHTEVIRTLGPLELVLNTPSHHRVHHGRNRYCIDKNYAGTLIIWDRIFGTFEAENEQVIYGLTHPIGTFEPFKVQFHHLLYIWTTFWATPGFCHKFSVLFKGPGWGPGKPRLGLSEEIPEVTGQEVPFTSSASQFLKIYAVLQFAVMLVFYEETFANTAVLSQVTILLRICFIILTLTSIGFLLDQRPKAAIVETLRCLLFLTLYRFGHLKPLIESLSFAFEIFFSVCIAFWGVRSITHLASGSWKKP
The following applies: rat liver microsomes; from reference (22); cited from earlier work.

Substrate in data set [3]: C[C@H](O)[C@H](O)[C@H]1CNc2nc(N)[nH]c(=O)c2N1
In words: purified protein, by the assay type. The following applies: other: activity generated in CHO cells by transfection of TMEM195 and ALDH3A2; KM for substrate or cofactor; mean±SEM; 37.0 °C.

As to `c1cnc2c(c1)ccc1cccnc12` [1,10-Phenanthroline], in data set [1] (activity generated in CHO cells by transfection, read-out: 50% inhibition of alkylglycerol monooxygenase activity), the IC50 was found to be 1390 ± 380 nM.
In the case of `OC[C@H](O)COCCCCCCCCCCc1ccc2ccc3cccc4ccc1c2c34` [1-O-pyrenedecylglycerol, 1-O-pyrenedecyl-sn-glycerol], the Km in data set [1] (activity generated in CHO cells by transfection of TMEM195 and ALDH3A2, KM for substrate or cofactor, read-out: Michaelis Menten constant (KM)) was 11 ± 1.1 µM; in data set [2], 8.9 µM.
Consider `C[C@H](O)[C@H](O)[C@H]1CNc2nc(N)[nH]c(=O)c2N1` [tetrahydrobiopterin], for which the Km in data set [2] was 2.6 µM.

B1: alkylglycerol monooxygenase (TMEM195) (Homo sapiens) (protein)
chain: T1 sequence (Q6ZNB7 1-445)
In the case of B1, the Km in data set [3] amounted to 2.58 ± 0.42 µM.
